Experimental data published in patent US20160201112A1, “NANOSENSOR FOR DETECTING THE ACTIVITY OF GLYCOSAMINOGLYCAN-CLEAVING ENZYMES AND USES THEREOF” (VIRGINIA COMMONWEALTH UNIVERSITY, priority 2013, published 2016).
“Also recorded” adds a separate entry of the source.

Legend:
[1] = test system: mixture of heparitinase I, II, and III; assay: Heparitinase enzyme inhibition study, heparin disaccharides analysed by HPLC; type: biochemical; settings: 10% w/w OSCS in heparin (90% heparin + 10% w/w OSCS)
Procedure: (§1) Once it was established that enzyme action causes the fluorescence probe to recover from being quenched, a heparitinase enzyme inhibition study was carried out in the presence of OSCS-contaminated heparin. For this study, a mixture of heparitinase I, II, and III was incubated with (a) heparin (200 μg), (b) heparin with 10% w/w chondroitin sulfate A and C and (c) heparin with 10% w/w OSCS. The resulting oligosaccharides were then analyzed by analytical HPLC. […] The enzyme activity on the nanosensor should be maximal at low OSCS concentration and minimal at high OSCS concentration. Consequently, the fluorescence quenching of the dye should be minimal at low OSCS concentrations (and measured fluorescence should be high) and quenching should be maximal at high OSCS concentrations (and measured fluorescence should below).

[2] = test system: heparitinase; assay: Au-heparin-dye nanosensor fluorescence assay with heparitinase and OSCS-spiked heparin (96-well plate); type: biochemical; settings: in the presence of 10% w/w OSCS
Procedure: as §1
In order to develop an analytical method and kit for determining contamination in heparin, serial dilutions of OSCS were performed at log increment concentrations from 0.1 μg/μL to 0.1 femtogram (fg)/μL. Next, standard heparin solutions (10 μg) were spiked serially with OSCS solutions from 1 μg (10% w/w) to 0.1 fg (10^−9% w/w) of OSCS “contamination” resulting in 11 separate tests. Heparin (10 μg) and OSCS (10 μg) were utilized as positive and negative controls, respectively. […]

oversulfated chondroitin sulfate [OSCS]
inhibition of heparitinase enzyme activity (HPLC profile of heparin disaccharides) [1]: completely inhibits the enzyme; also recorded: powerful inhibitor
heparitinase action on Au-heparin-dye nanosensor (fluorescence quenching) [2]: heparitinases could not act on the Au-heparin-dye nanosensor and fluorescence quenching was maintained
